ChEMBL document CHEMBL4837262, “Development and Profiling of Inverse Agonist Tools for the Neuroprotective Transcription Factor Nurr1” (J Med Chem, 2021)
Calls of active or inactive are those of the source. No cut-off for these calls is given here.

Key:
[1] = target: T1, Nuclear receptor subfamily 4 group A member 2 (Homo sapiens, UniProt P43354); assay: Inverse agonist activity at Gal4-fused human Nurr1 LBD expressed in HEK293T cells co-expressing firefly luciferase assessed as luciferase activity by hybrid reporter gene assay; format: cell-based
T1 sequence (P43354 whole entry, the tested form may be a part): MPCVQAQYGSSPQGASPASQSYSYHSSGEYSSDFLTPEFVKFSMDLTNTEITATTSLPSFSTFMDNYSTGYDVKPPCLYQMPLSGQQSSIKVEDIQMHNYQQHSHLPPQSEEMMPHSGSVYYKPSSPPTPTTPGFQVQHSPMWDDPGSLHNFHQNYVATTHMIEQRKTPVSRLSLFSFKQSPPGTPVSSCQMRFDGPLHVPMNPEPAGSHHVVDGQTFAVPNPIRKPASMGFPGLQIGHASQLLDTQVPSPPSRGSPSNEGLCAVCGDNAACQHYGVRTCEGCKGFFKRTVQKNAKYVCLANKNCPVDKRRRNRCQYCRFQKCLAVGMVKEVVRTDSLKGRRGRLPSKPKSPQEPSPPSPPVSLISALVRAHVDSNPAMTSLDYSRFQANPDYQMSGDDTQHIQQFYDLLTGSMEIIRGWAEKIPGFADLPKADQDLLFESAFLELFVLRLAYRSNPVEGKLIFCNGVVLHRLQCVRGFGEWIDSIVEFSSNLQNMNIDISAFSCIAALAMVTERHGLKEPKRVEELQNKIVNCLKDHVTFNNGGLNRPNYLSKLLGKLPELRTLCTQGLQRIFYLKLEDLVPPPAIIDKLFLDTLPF

[2] = target: T1, Nuclear receptor subfamily 4 group A member 2; assay: Agonist activity at Gal4-fused human Nurr1 LBD expressed in HEK293T cells co-expressing firefly luciferase assessed as luciferase activity by hybrid reporter gene assay; format: cell-based
[3] = target: T1, Nuclear receptor subfamily 4 group A member 2; assay: Agonist activity at Gal4-fused human Nurr1 LBD expressed in HEK293T cells co-expressing firefly luciferase assessed as fold increase in luciferase activity by hybrid reporter gene assay relative to control; format: cell-based; details: filed as agonist
[4] = tested on: T98G; assay: Cytotoxicity against human T98G cells assessed as reduction in cell viability upto 100 uM after 24 hrs by WST-1 assay; format: cell-based
[5] = tested on: HEK-293T; assay: Cytotoxicity against human HEK293T cells assessed as reduction in cell viability upto 100 uM after 24 hrs by WST-1 assay; format: cell-based
[6] = target: T1, Nuclear receptor subfamily 4 group A member 2; assay: Agonist activity at Gal4-fused human Nurr1 LBD expressed in HEK293T cells co-expressing firefly luciferase assessed as luciferase activity in presence of 5-(Pyridin-3-yl)-1-methylindole-3-carboxylic Acid Methyl Ester by hybrid reporter gene assay; format: cell-based
[7] = target: T1, Nuclear receptor subfamily 4 group A member 2; assay: Inverse agonist activity at Gal4-fused human Nurr1 LBD expressed in HEK293T cells co-expressing firefly luciferase assessed as luciferase activity in presence of AQ by hybrid reporter gene assay; format: cell-based
[8] = target: T1, Nuclear receptor subfamily 4 group A member 2; assay: Inverse agonist activity at human Nurr1 LBD assessed as displacement of NCoR1 from Nurr1 after 2 hrs by HTRF assay
[9] = target: T1, Nuclear receptor subfamily 4 group A member 2; assay: Inverse agonist activity at human Nurr1 LBD assessed as displacement of NCoR2 from Nurr1 after 2 hrs by HTRF assay
[10] = target: T1, Nuclear receptor subfamily 4 group A member 2; assay: Inverse agonist activity at human Nurr1 LBD assessed as inhibition of NCoA6-Nurr1 interaction after 2 hrs by HTRF assay
[11] = target: T1, Nuclear receptor subfamily 4 group A member 2; assay: Inverse agonist activity at human Nurr1 LBD assessed as inhibition of SRC1-Nurr1 interaction after 2 hrs by HTRF assay
[12] = target: T1, Nuclear receptor subfamily 4 group A member 2; assay: Inverse agonist activity at human Nurr1 LBD assessed as inhibition of CBP1-Nurr1 interaction after 2 hrs by HTRF assay
[13] = target: T1, Nuclear receptor subfamily 4 group A member 2; assay: Inverse agonist activity at human Nurr1 LBD assessed as inhibition of Nurr1 homodimerization after 2 hrs by HTRF assay; details: filed as inverse agonist
[14] = target: T1, Nuclear receptor subfamily 4 group A member 2; assay: Inverse agonist activity at human Nurr1 LBD assessed as inhibition of heterodimerization of Nurr1 with RXRalpha after 2 hrs by HTRF assay
[15] = target: T1, Nuclear receptor subfamily 4 group A member 2; assay: Inverse agonist activity at Gal4-fused human Nurr1 monomer response element NBRE expressed in HEK293T cells co-expressing firefly luciferase assessed as luciferase activity by hybrid reporter gene assay; format: cell-based
[16] = tested on: T98G; assay: Cytotoxicity against human T98G cells assessed as reduction in cell viability at >30 uM after 24 hrs by WST-1 assay; format: cell-based
[17] = tested on: HEK-293T; assay: Cytotoxicity against human HEK293T cells assessed as reduction in cell viability at >30 uM after 24 hrs by WST-1 assay; format: cell-based

Row | Compound | IC50 ([1]; read-out: IC50) | IC50 ([1]; hek293t) | further results
1 | COC(=O)c1c[nH]c2c(Cl)cccc12 | 19 µM |  | 
2 | CC(=O)c1c[nH]c2ccccc12 |  | Not Active | 
3 | COC(=O)c1c[nH]c2ccc(C)cc12 | 20 µM |  | 
4 | COC(=O)c1c[nH]c2ccc(Cc3ccccc3)cc12 |  | Not Active | 
5 | COC(=O)c1c(C)[nH]c2ccccc12 | 53 µM |  | 
6 | CN(C)C(=O)c1cn(C)c2ccc(-c3ccccc3)cc12 | > 30 µM |  | 
7 | COC(=O)c1cn(-c2ccccc2)c2ccccc12 |  |  | EC50 [2]: 81 µM; fold change (FC) [3]: 1.9
8 | CNC(=O)c1cn(C)c2ccc(-c3ccccc3)cc12 | 14 µM |  | 
9 | CCC(=O)c1c[nH]c2ccccc12 |  | Not Active | 
10 | COC(=O)c1cn(C)c2c(Cl)cc(-c3cccnc3)cc12 | 11 µM |  | 
11 | COC(=O)c1c[nH]c2cccc(Cl)c12 | 55 µM |  | 
12 | COC(=O)c1c[nH]c2c(OC)cccc12 |  | Not Active | 
13 | COC(=O)c1c[nH]c2ccc(Br)cc12 | 15 µM |  | 
14 | CCNC(=O)c1cn(C)c2ccc(-c3ccccc3)cc12 |  | Not Active | 
15 | COC(=O)c1cn(C)c2ccccc12 | 21 µM |  | 
16 | O=C(Oc1ccccc1)c1c[nH]c2ccccc12 |  |  | EC50 [2]: 11 µM; fold change (FC) [3]: 1.93

Row | Compound | IC50 ([1]; read-out: IC50) | IC50 ([1]; hek293t) | further results
17 | CCn1cc(C(=O)OC)c2ccccc21 | 31 µM |  | 
18 | COC(=O)c1c(Cl)[nH]c2ccccc12 | 34 µM |  | 
19 | O=Cc1c[nH]c2ccccc12 [3-FORMYLINDOLE] |  | Not Active | 
20 | COC(=O)c1cn(C)c2ccc(-c3ccccc3)cc12 |  |  | Activity [4]: Non-Toxic; Activity [5]: Non-Toxic
21 | COC(=O)c1c[nH]c2c(C)cccc12 | 35 µM |  | 
22 | COC(=O)c1c[nH]c2ccccc12 | 48 µM |  | 
23 | CCN(CC)Cc1cc(Nc2ccnc3cc(Cl)ccc23)ccc1O [AMODIAQUINE] |  |  | EC50 [2]: 41 µM; EC50 [6]: 82 µM
24 | CC(C)(C)OC(=O)c1c[nH]c2ccccc12 |  | Not Active | 
25 | COC(=O)c1cn(Cc2ccccc2)c2ccccc12 |  | Not Active | 
26 | COC(=O)c1c[nH]c2ccc(OC)cc12 | 23 µM |  | 
27 | O=C(O)c1c[nH]c2ccccc12 |  | Not Active | 
28 | COC(=O)c1c[nH]c2cccc(C)c12 |  | Not Active | 
29 | COC(=O)c1cn(C)c2ccc(-c3cccnc3)cc12 | 3.8 µM |  | IC50 [7]: 3.7 µM; IC50 [8]: 57 µM; IC50 [9]: 29 µM; Activity [10]: inactive; Activity [11]: inactive; Activity [12]: inactive; Activity [13]: Dose-Dependent Effect; Activity [14]: inactive; IC50 [15]: 10 µM; Activity [16]: Toxic; Activity [17]: Toxic
30 | CCOC(=O)c1c[nH]c2ccccc12 |  | Not Active | 
31 | COC(=O)c1c[nH]c2ccc(Cl)cc12 | 24 µM |  | 
32 | COC(=O)c1c[nH]c2cc(C)ccc12 | 57 µM |  | 
